This note sets out measurements from ChEMBL document CHEMBL1134992, “Six-membered cyclic ureas as HIV-1 protease inhibitors: a QSAR study based on CODESSA PRO approach. Quantitative structure-activity relationships” (Bioorg Med Chem Lett, 2002).

This experiment concerns the target Human immunodeficiency virus type 1 protease (Human immunodeficiency virus 1, UniProt Q72874). In words: Inhibitory activity of compound against HIV-1 aspartyl protease. The note with it: read-out: Log 1/Ki (converted).

As to `CNc1cc(CN2C(=O)N(Cc3ccc(F)c(NC)c3)[C@H](Cc3ccccc3)[C@H](O)[C@H]2CCc2ccccc2)ccc1F`, the Ki is 4.91 nM.
